± gives the standard deviation of the averaged measurements.
Tests used:
MK2206 = compound: NC1(c2ccc(-c3nc4ccn5c(=O)[nH]nc5c4cc3-c3ccccc3)cc2)CCC1 [MK2206]; test: surviving fraction relative to DMSO-only wells; higher = less growth inhibition; details: exposure time: 5 days
Outline: (§1)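 Viability values are CellTiter-Glo luminescence readings, given as surviving fraction against the median of DMSO-only wells. The readings were taken after 10 minutes at room temperature, following five days of continuous exposure to inhibitors at 0.5, 1, 5, 10, 50, 100, 500 and 1000 nM that began 24 hours after log-phase tumour cell lines were seeded at 250–500 cells per well in 384-well plates. Every line was screened three times and kept only if replicate Pearson r >0.7 and median Z' >0.3.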

METHOTREXATE = compound: CN(Cc1cnc2nc(N)nc(N)c2n1)c1ccc(C(=O)N[C@@H](CCC(=O)O)C(=O)O)cc1 [METHOTREXATE]; test: as above; details: exposure time: 5 days
Outline: as §1

Test System	surviving fraction (MK2206; 0.5 nM)	surviving fraction (MK2206; 1 nM)	surviving fraction (MK2206; 5 nM)	surviving fraction (MK2206; 10 nM)	surviving fraction (MK2206; 50 nM)	surviving fraction (MK2206; 100 nM)	surviving fraction (MK2206; 500 nM)	surviving fraction (MK2206; 1000 nM)	surviving fraction (METHOTREXATE; 0.5 nM)	surviving fraction (METHOTREXATE; 1 nM)	surviving fraction (METHOTREXATE; 5 nM)	surviving fraction (METHOTREXATE; 10 nM)	surviving fraction (METHOTREXATE; 50 nM)	surviving fraction (METHOTREXATE; 100 nM)	surviving fraction (METHOTREXATE; 500 nM)	surviving fraction (METHOTREXATE; 1000 nM)
KPD BONE	1 ± 0.043	0.979 ± 0.031	0.944 ± 0.075	0.931 ± 0.047	0.634 ± 0.013	0.467 ± 0.024	0.252 ± 0.0083	0.195 ± 0.0091	1.06 ± 0.061	1.02 ± 0.043	1.12 ± 0.035	1.09 ± 0.076	1.08 ± 0.087	1.17 ± 0.021	1.02 ± 0.024	1.05 ± 0.047
NY BONE	1.03 ± 0.035	1.06 ± 0.024	1.05 ± 0.012	1.05 ± 0.033	0.96 ± 0.047	0.954 ± 0.023	0.882 ± 0.014	0.853 ± 0.017	0.978 ± 0.015	0.993 ± 0.013	1.07 ± 0.068	0.97 ± 0.037	0.56 ± 0.023	0.566 ± 0.03	0.475 ± 0.026	0.42 ± 0.025
MDAMB468 BREAST	1.07 ± 0.052	1.1 ± 0.076	1.1 ± 0.067	1.09 ± 0.052	0.966 ± 0.06	0.939 ± 0.073	0.666 ± 0.0078	0.595 ± 0.014	1.12 ± 0.046	1.09 ± 0.072	1.11 ± 0.042	1.12 ± 0.025	0.263 ± 0.015	0.083 ± 0.0027	0.0627 ± 0.0057	0.065 ± 0.001
BT549 BREAST	1.07 ± 0.092	1.06 ± 0.048	0.982 ± 0.15	1.06 ± 0.07	0.837 ± 0.05	0.833 ± 0.091	0.616 ± 0.078	0.46 ± 0.043	1.11 ± 0.16	1.04 ± 0.034	1 ± 0.063	1.03 ± 0.11	0.107 ± 0.012	0.044 ± 0.0053	0.0323 ± 0.0055	0.039 ± 0.011
SCC90 HEADNECK	0.954 ± 0.027	1.01 ± 0.048	0.973 ± 0.073	1.12 ± 0.093	0.887 ± 0.011	0.935 ± 0.082	0.704 ± 0.071	0.586 ± 0.047	1.07 ± 0.075	1.05 ± 0.11	1.07 ± 0.066	1.09 ± 0.098	0.954 ± 0.015	0.852 ± 0.068	0.424 ± 0.06	0.416 ± 0.031
U2OS BONE	0.992 ± 0.017	1.03 ± 0.051	1.03 ± 0.027	1.05 ± 0.026	0.991 ± 0.015	0.941 ± 0.035	0.815 ± 0.0053	0.731 ± 0.055	1 ± 0.045	1.02 ± 0.039	1.04 ± 0.051	0.31 ± 0.0076	0.672 ± 0.01	0.669 ± 0.014	0.636 ± 0.016	0.625 ± 0.026
SUM149.B1*.S BREAST	1.08 ± 0.057	1.14 ± 0.093	1.12 ± 0.034	1.09 ± 0.076	1.05 ± 0.058	1.07 ± 0.045	0.998 ± 0.056	1.06 ± 0.036	1.09 ± 0.065	1.12 ± 0.042	1.06 ± 0.036	1.09 ± 0.041	0.854 ± 0.035	0.767 ± 0.052	0.716 ± 0.046	0.733 ± 0.0095
MG63 BONE	0.987 ± 0.01	1.06 ± 0.049	1.04 ± 0.03	1.09 ± 0.047	0.95 ± 0.016	0.961 ± 0.03	0.793 ± 0.019	0.748 ± 0.017	1.05 ± 0.051	1.07 ± 0.047	1.11 ± 0.042	1.1 ± 0.052	0.364 ± 0.016	0.197 ± 0.0027	0.178 ± 0.01	0.17 ± 0.0082
MDAMB134 BREAST	1 ± 0.079	0.89 ± 0.29	0.921 ± 0.0014	0.891 ± 0.14	0.703 ± 0.016	0.783 ± 0.072	0.629 ± 0.13	0.673 ± 0.18	0.929 ± 0.039	0.947 ± 0.04	0.899 ± 0.052	0.848 ± 0.027	1.12 ± 0.21	0.858 ± 0.073	0.75 ± 0.06	0.75 ± 0.011
SG32 HEADNECK	1.04 ± 0.053	0.975 ± 0.3	1.08 ± 0.24	1.17 ± 0.19	1.51 ± 0.17	1.08 ± 0.13	0.964 ± 0.073	0.83 ± 0.1	0.946 ± 0.11	1.5 ± 0.84	1.19 ± 0.16	1.25 ± 0.34	0.899 ± 0.039	1.02 ± 0.2	1.1 ± 0.14	0.954 ± 0.078
HCC70 BREAST	1.03 ± 0.063	1.1 ± 0.08	1.13 ± 0.11	1.1 ± 0.12	0.93 ± 0.076	0.869 ± 0.094	0.39 ± 0.033	0.312 ± 0.014	1.04 ± 0.079	1.14 ± 0.092	1.01 ± 0.09	1.12 ± 0.046	0.842 ± 0.043	0.789 ± 0.023	0.763 ± 0.025	0.787 ± 0.041
SIHA CERVIX	0.989 ± 0.041	1 ± 0.043	1.02 ± 0.092	1.04 ± 0.062	0.8803 ± 0.0068	0.876 ± 0.031	0.731 ± 0.013	0.719 ± 0.021	1.05 ± 0.02	1.14 ± 0.048	1.07 ± 0.085	1.1 ± 0.017	0.8 ± 0.014	0.835 ± 0.034	0.787 ± 0.018	0.782 ± 0.014
HSSYII SYNOVIAL	0.937 ± 0.019	0.9935 ± 0.0096	0.93 ± 0.042	0.984 ± 0.043	0.903 ± 0.059	0.921 ± 0.037	0.773 ± 0.024	0.738 ± 0.032	0.995 ± 0.049	0.996 ± 0.048	1 ± 0.051	0.969 ± 0.029	0.822 ± 0.035	0.834 ± 0.081	0.755 ± 0.045	0.78 ± 0.043
CADOES1 SOFT TISSUE	1.02 ± 0.12	0.925 ± 0.099	0.915 ± 0.097	0.926 ± 0.036	0.828 ± 0.088	0.815 ± 0.092	0.711 ± 0.077	0.591 ± 0.071	0.973 ± 0.11	1.02 ± 0.14	0.869 ± 0.052	0.672 ± 0.12	0.288 ± 0.013	0.229 ± 0.0093	0.226 ± 0.021	0.242 ± 0.011
ZR751 BREAST	0.962 ± 0.026	1.04 ± 0.088	0.678 ± 0.065	0.734 ± 0.064	0.407 ± 0.024	0.424 ± 0.027	0.308 ± 0.029	0.317 ± 0.029	1 ± 0.11	1.1 ± 0.14	0.975 ± 0.057	1.29 ± 0.21	0.715 ± 0.077	0.69 ± 0.088	0.707 ± 0.044	0.741 ± 0.011
143B BONE	0.912 ± 0.012	0.969 ± 0.042	0.974 ± 0.082	1.1 ± 0.1	0.957 ± 0.024	0.959 ± 0.064	0.96 ± 0.034	0.939 ± 0.033	1.06 ± 0.018	1.04 ± 0.016	1.03 ± 0.041	0.471 ± 0.022	0.379 ± 0.033	0.174 ± 0.014	0.085 ± 0.0071	0.0875 ± 0.016
